pKd: −log10 of the molar value.
Biological target: Growth factor receptor-bound protein 2 (Homo sapiens, UniProt P62993)
Assay: Binding affinity to Grb2-SH2 domain by surface plasmon resonance

Sequence of Growth factor receptor-bound protein 2 (P62993 whole entry, the tested form may be a part): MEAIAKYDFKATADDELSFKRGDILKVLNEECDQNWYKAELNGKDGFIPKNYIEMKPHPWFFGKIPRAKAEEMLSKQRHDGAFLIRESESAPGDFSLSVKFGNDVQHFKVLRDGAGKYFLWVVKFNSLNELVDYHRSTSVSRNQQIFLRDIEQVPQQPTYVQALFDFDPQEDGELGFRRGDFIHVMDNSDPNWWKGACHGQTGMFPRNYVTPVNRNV

For `NC(=O)C[C@H](NC(=O)C1(NC(=O)[C@@H](CC(=O)O)Cc2ccc(CP(=O)(O)O)cc2)CCN(C(=O)CCCCc2ccccc2)CC1)C(=O)NCCCc1ccc2ccccc2c1`, the pKd was 5.66.
With `COC(=O)N1CCC(NC(=O)[C@@H](CC(=O)O)Cc2ccc(CP(=O)(O)O)cc2)(C(=O)N[C@@H](CC(N)=O)C(=O)NCCCc2ccc3ccccc3c2)CC1` the pKd was 6.97.
`COCCOC(=O)N1CCC(NC(=O)[C@@H](CC(=O)O)Cc2ccc(CP(=O)(O)O)cc2)(C(=O)N[C@@H](CC(N)=O)C(=O)NCCCc2ccc3ccccc3c2)CC1` showed a pKd of 6.69.
For `NC(=O)C[C@H](NC(=O)C1(NC(=O)[C@@H](CC(=O)O)Cc2ccc(CP(=O)(O)O)cc2)CCN(C(=O)NCCc2ccccc2)CC1)C(=O)NCCCc1ccc2ccccc2c1`, the pKd was 6.57.
Compound `NC(=O)C[C@H](NC(=O)C1(NC(=O)[C@@H](CC(=O)O)Cc2ccc(CP(=O)(O)O)cc2)CCN(C(=O)OCc2ccc(C(=O)O)cc2)CC1)C(=O)NCCCc1ccc2ccccc2c1` has a pKd of 6.06.
`NC(=O)C[C@H](NC(=O)C1(NC(=O)[C@@H](CC(=O)O)Cc2ccc(CP(=O)(O)O)cc2)CCN(C(=O)OCc2ccccc2)CC1)C(=O)NCCCc1ccc2ccccc2c1` gave a pKd of 6.49.
With `NC(=O)C[C@H](NC(=O)C1(NC(=O)[C@@H](CC(=O)O)Cc2ccc(CP(=O)(O)O)cc2)CCN(C(=O)OCCc2ccccc2)CC1)C(=O)NCCCc1ccc2ccccc2c1` the pKd was 7.44.
`NC(=O)C[C@H](NC(=O)C1(NC(=O)[C@@H](CC(=O)O)Cc2ccc(CP(=O)(O)O)cc2)CCN(C(=O)CCCc2ccccc2)CC1)C(=O)NCCCc1ccc2ccccc2c1` gave a pKd of 7.57.
`Cc1ccc2c(ccn2CCC(=O)N2CCC(NC(=O)[C@@H](CC(=O)O)Cc3ccc(CP(=O)(O)O)cc3)(C(=O)N[C@@H](CC(N)=O)C(=O)NCCCc3ccc4ccccc4c3)CC2)c1` was tested, and the pKd was 6.34.
With `NC(=O)C[C@H](NC(=O)C1(NC(=O)[C@@H](CC(=O)O)Cc2ccc(CP(=O)(O)O)cc2)CCN(S(=O)(=O)CCc2ccccc2)CC1)C(=O)NCCCc1ccc2ccccc2c1` the pKd was 5.67.
